Like-named read-outs stand apart in the source and are kept apart here.
Tested on: SARS-CoV-2
Format: cell-based, SARS-CoV-2 (BetaCoV/France/IDF0571/2020 strain)
Conditions: for antiviral activity against SARS-CoV-2 (in words): single drug

Row | Compound | IC50 [µM] | antiviral activity against SARS-CoV-2 (in words) | reduction of remdesivir IC50 (in presence of 12.5 μM berberine versus remdesivir alone) [fold] | reduction of remdesivir IC50 (in presence of diltiazem (11.5 μM) versus remdesivir alone)
1 | CCOC(=O)c1c(CSc2ccccc2)n(C)c2cc(Br)c(O)c(CN(C)C)c12 [Arbidol (umifenovir)] | 3.54 | – | – | –
2 | COc1ccc2cc3[n+](cc2c1OC)CCc1cc2c(cc1-3)OCO2 [Berberine] | 10.6 | dose-dependent antiviral responses | – | –
3 | COc1ccc([C@@H]2Sc3ccccc3N(CCN(C)C)C(=O)[C@@H]2OC(C)=O)cc1 [Diltiazem] | – | neither diltiazem nor ribavirin or favipiravir showed antiviral activity | – | –
4 | NC(=O)c1nc(F)c[nH]c1=O [Favipiravir, 6-fluoro-3-hydroxy-2-pyrazinecarboxamine] | – | neither diltiazem nor ribavirin or favipiravir showed antiviral activity | – | –
5 | Cc1cccc(C)c1OCC(=O)N[C@@H](Cc1ccccc1)[C@@H](O)C[C@H](Cc1ccccc1)NC(=O)[C@H](C(C)C)N1CCCNC1=O [Lopinavir] | 5.25 | – | – | –
6 | CCC(CC)COC(=O)[C@H](C)N[P@](=O)(OC[C@H]1O[C@@](C#N)(c2ccc3c(N)ncnn23)[C@H](O)[C@@H]1O)Oc1ccccc1 [Remdesivir] | 0.987 | – | > 2 | up to 8.5 fold
7 | NC(=O)c1ncn([C@@H]2O[C@H](CO)[C@@H](O)[C@H]2O)n1 [Ribavirin, 1-β-D-ribofuranosyl-1,2,4-triazole-3-carboxamide] | – | neither diltiazem nor ribavirin or favipiravir showed antiviral activity | – | –

— publication PMC7361110 (Antiviral Research, 2020)
